# Data: US6759429B2, “Pyrrole derivatives” (Sumitomo Pharmaceuticals Co., Ltd., priority 2000, dated 2004)
# Tested on: TGF-β
# Test: Effects on the extracellular matrix production by TGF-β (proteoglycan production in fibroblast)
# Assay type: cell-based
# Details: Rattus norvegicus, NRK-49F cells, 3 ng/ml TGF-β, 24 h, [35S]-proteoglycan radioactivity, read-out: TGF-β inhibitory rate (%)
# Experimental: Effects on the Extracellular Matrix Production by TGF-β The effect of the compounds of Examples on the production of proteoglycan when TGF-β was added to fibroblast was evaluated. NRK-49F cells (rat fibroblast) were cultured in Dulbecco's Modified Eagle Medium (DMEM: manufactured by GIBCO) containing 10% bovine serum, and used in this experiment. The cells were put into a 96-well plate in an amount of 2.5×10^4 cells/100 μl/well. On the next day, the medium in the plate was exchanged to the DMEM medium containing 3 ng/ml of TGF-β (manufactured by Nacalai Tesque, Inc.), 0.5 μCi/well of [^35S]-Na2SO4, and a test compound. […] The gel after electrophoresis was dried with a gel drier, and exposed to an imaging plate, which was analyzed with […] (manufactured by Fuji Photo Film). The radioactivity of proteoglycan to be electrophoresed was measured, and the TGF-β inhibitory rate was calculated by the following equation. TGF-β Inhibitory rate (%)=(A−B)×100/(A−C) A: Radioactivity in the presence of TGF-β without a test compound B: Radioactivity in the presence of TGF-β and a test compound C: Radioactivity in the absence of TGF-β and a test compound The TGF-β inhibitory rates (%) of the test compound at concentrations of 3 μM and 10 μM are shown in Table 1.
compound,measurement,setting,value
COC(=O)c1cc(Cl)ccc1/C=C/Cn1cccc1C(=O)c1ccc(O)cc1 [Example 103],inhibition at 3 µM,test compound 3 μM,55%
same,inhibition at 10 µM,test compound 10 μM,90%
